Reference: patent publication US20040005708A1, “Polypeptide derivatives and nucleic acid carriers containing the same” (priority 2002, published 2004)

Experiments:
HepG2 cells = details: Plasmid A (luciferase) complex, plasmid/pDBA weight ratio 1/3 to 1/7, 10% fetal bovine serum, 4 h then 48 h incubation, compared to non-modified pDBA
Procedure: Thirty minutes prior to administration, the nucleic acid carriers were added dropwise to the plasmid solution while stirring to prepare plasmid/pDBA complex solutions. PBS was used as solvent. Specifically, 25.0 μg/ml plasmid solutions were prepared, and plasmid/pDBA complex solutions having a plasmid concentration of 12.5 μg/ml were used as the gene transfer samples.
HepG2 cells were inoculated onto a 12-well multi-well plate (Coaster Inc.) at 1×10^5 cells/well one day prior to testing. The plasmid/pDBA complex solution was added to the HepG2 cells in the presence of 10% fetal bovine serum (Sanko Junyaku Co. Ltd.), and incubation was carried out at 37° C. for 4 hours. Medium was exchanged with a fresh culture medium and incubation continued for 48 hours. After washing with PBS twice, a cell lysis reagent (Toyo Ink Co. Ltd.) was added and freeze-thaw was carried out once. The cell lysate was recovered and subjected to centrifugation (12,000 rpm×10 minutes). The luciferase activity of the supernatant was determined with a luminometer (LumitLB9501; Berthold Inc.) using a luciferase assay system (Toyo Ink Co. Ltd.). The protein concentration of the centrifuged supernatant was also determined with a microplate reader (Rainbow Themo; Tecan Inc.) using a protein assay kit (Bio-Rad Inc.). […]

mice = details: tail vein, Plasmid A 12.5 μg/0.5 ml per mouse, plasmid/pDBA weight ratio 1/3, two days after administration
Procedure: A solution of Plasmid A and a solution of pDBA were prepared at twice the desired concentration. Thirty minutes prior to administration, the pDBA solutions were added dropwise to the plasmid solution while stirring to prepare plasmid/pDBA complexes solution. PBS was used as solvent. Specifically, 50.0 μg/ml plasmid solutions were prepared, and plasmid/pDBA complex solutions having a plasmid concentration of 25 μg/ml were used as the gene transfer samples.
The complex solutions were administered to mice through their tail veins. The dosage of Plasmid A per mouse was 12.5 μg/0.5 ml. Two days after administration the gene transfer to the tissue was determined by measuring the luciferase activity found in the liver.

**Q.** With “side chain galactose-modified poly-DL-diaminobutyric acid [Gal-pDBA]” as the substance, how does the “activity of luciferase expressed” value (HepG2 cells) read?
**A.** Its value is “higher luciferase activity than did non-modified pDBA”.

**Q.** And the “luciferase activity in the liver as compared to the group where pDBA was used as the nucleic acid carrier” value (mice)?
**A.** The value was “about 2.5 fold”.
